Several values for one entry are separate records, joined by “and”; a condition that tells them apart may be missing. Identical values can stand only once.
Legend:
[1] = biological target: T1, human GPR119 (Homo sapiens, UniProt Q8TDV5); test: cAMP HTRF functional assay (hGPR119 HEK-CRE beta-lactamase cells); assay type: cell-based; design: host or cells: HEK293-CRE beta-lactamase; conditions: for Emax: read-out: Intrinsic Activity (Human cAMP)
T1 sequence (Q8TDV5 1-335): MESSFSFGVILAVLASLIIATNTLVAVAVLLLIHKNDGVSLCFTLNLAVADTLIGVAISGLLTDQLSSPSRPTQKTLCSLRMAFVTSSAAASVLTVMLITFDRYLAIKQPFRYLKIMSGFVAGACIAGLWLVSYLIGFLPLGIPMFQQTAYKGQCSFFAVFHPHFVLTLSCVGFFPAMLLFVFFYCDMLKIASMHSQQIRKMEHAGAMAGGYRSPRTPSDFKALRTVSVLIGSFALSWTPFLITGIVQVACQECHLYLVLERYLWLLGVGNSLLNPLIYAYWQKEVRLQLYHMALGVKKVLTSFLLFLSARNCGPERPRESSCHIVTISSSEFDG
Method: GPR119 agonist activity was also determined with a cell-based assay utilizing an HTRF (Homogeneous Time-Resolved Fluorescence) cAMP detection kit (cAMP dynamic 2 Assay Kit; Cis Bio cat #62AM4PEC) that measures cAMP levels in the cell. The method is a competitive immunoassay between native cAMP produced by the cells and the cAMP labeled with the dye d2. The tracer binding is visualized by a Mab anti-cAMP labeled with Cryptate. The specific signal (i.e. energy transfer) is inversely proportional to the concentration of cAMP in either standard or sample.
Specifically, hGPR119 HEK-CRE beta-lactamase cells (Invitrogen 2.5×10^7/mL; the same cell line used in the beta-lactamase assay described above) are removed from cryopreservation and diluted in growth medium (Dulbecco's modified Eagle medium high glucose (DMEM; Gibco Cat # 11995-065), 1% charcoal dextran treated fetal bovine serum (CD serum; HyClone Cat # SH30068.03), 1×MEM Nonessential amino acids (Gibco Cat # 15630-080) and 25 mM HEPES pH 7.0 (Gibco Cat # 15630-080)). The cell concentration was adjusted to 1.5×10^5 cells/mL and 30 mLs of this suspension was added to a T-175 flask and incubated at 37 degrees Celsius in a humidified environment in 5% carbon dioxide. After 16 hours (overnight), the cells were removed from the T-175 flask (by rapping the side of the flask), centrifuged at 800×g and then re-suspended in assay medium (1×HBSS+CaCl2+MgCl2 (Gibco Cat # 14025-092) and 25 mM HEPES pH 7.0 (Gibco Cat # 15630-080)). The cell concentration was adjusted to 6.25×10^5 cells/mL with assay medium and 8 μl of this cell suspension (5000 cells) was added to each well of a white Greiner 384-well, low-volume assay plate (VWR cat #82051-458).
Varying concentrations of each compound to be tested were diluted in assay buffer containing 3-isobutyl-1-methylxanthin (IBMX; Sigma cat #15879) and added to the assay plate wells in a volume of 2 microL (final IBMX concentration was 400 microM and final DMSO concentration was 0.58%). Following 30 minutes incubation at room temperature, 5 microL of labeled d2 cAMP and 5 microL of anti-cAMP antibody (both diluted 1:20 in cell lysis buffer; as described in the manufacturers assay protocol) were added to each well of the assay plate. The plates were then incubated at room temperature and after 60 minutes, changes in the HTRF signal were read with an Envision 2104 multilabel plate reader using excitation of 330 nm and emissions of 615 and 665 nm. Raw data were converted to nM cAMP by interpolation from a cAMP standard curve (as described in the manufacturer's assay protocol) and EC50 determinations were made from an agonist-response curves analyzed with a curve fitting program using a 4-parameter logistic dose response equation.

[2] = biological target: T1, human GPR119; test: GPR119 radioligand binding assay ([3H]-Compound A or B, membranes of HEK 293FT cells expressing hGPR119); design: host or cells: HEK293-CRE beta-lactamase; conditions: calculated from IC50 with Cheng-Prusoff; each line a separate determination
Method: HEK 293FT cells (Invitrogen, Carlsbad, Calif.) were grown in a shake flask in 293Freestyle medium (Invitrogen) supplemented with 50 microg/mL neomycin and 10 mM HEPES (37C, 8% carbon dioxide, shaking). The cells were centrifuged gently (approximately 500×g, 10 minutes) and the pellet resuspended in a mixture of Dulbecco's PBS (minus Mg++/−Ca++) supplemented with 18% fetal bovine serum (Sigma Aldrich) and P1 virus such that the multiplicity of infection (MOI) was 10 and the final cell density was 1.3×10^6/mL (total volume 2.5 liters). The cells were transferred to a 5 liter Wave Bioreactor Wavebag (Wave Technologies, Mass.) and incubated for 4 hours at 27 degrees Celsius (17 rocks/min, 7 degrees platform angle); at the end of the incubation period, an equal volume (2.5 liters) of 293Freestyle medium supplemented with 30 mM sodium butyrate (Sigma Aldrich) was added (final concentration=15 mM), and the cells were grown for 20 hours (37 degrees Celsius, 8% CO2 [0.2 liters/min}, 25 rocks/minute, 7 degrees platform angle). Cells were harvested via centrifugation (3,000×g, 10 minutes), washed once on DPBS (minus Ca++/Mg++), resuspended in 0.25M sucrose, 25 mM HEPES, 0.5 mM EDTA, pH 7.4 and frozen at −80 degrees Celsius.
The frozen cells were thawed on ice and centrifuged at 700×g (1400 rpm) for 10 minutes at 4 degrees Celsius. The cell pellet was resuspended in 20 mL phosphate-buffered saline, and centrifuged at 1400 rpm for 10 minutes. The cell pellet was then resuspended in homogenization buffer (10 mM HEPES (Gibco #15630), pH 7.5, 1 mM EDTA (BioSolutions, #BIO260-15), 1 mM EGTA (Sigma, #E-4378), 0.01 mg/mL benzamidine (Sigma #B 6506), 0.01 mg/mL bacitracin (Sigma #B 0125), 0.005 mg/mL leupeptin (Sigma #L 8511), 0.005 mg/mL aprotinin (Sigma #A 1153)) and incubated on ice for 10 minutes. Cells were then lysed with 15 gentle strokes of a tight-fitting glass Dounce homogenizer. The homogenate was centrifuged at 1000×g (2200 rpm) for 10 minutes at 4 degrees Celsius. The supernatant was transferred into fresh centrifuge tubes on ice. The cell pellet was resuspended in homogenization buffer, and centrifuged again at 1000×g (2200 rpm) for 10 minutes at 4 degrees Celsius after which the supernatant was removed and the pellet resuspended in homogenization buffer. This process was repeated a third time, after which the supernatants were combined, Benzonase (Novagen # 71206) and MgCl2 (Fluka #63020) were added to final concentrations of 1 U/mL and 6 mM, respectively, and incubated on ice for one hour. The solution was then centrifuged at 25,000×g (15000 rpm) for 20 minutes at 4 degrees Celsius, the supernatant was discarded, and the pellet was resuspended in fresh homogenization buffer (minus Benzonase and MgCl2). After repeating the 25,000×g centrifugation step, the final membrane pellet was resuspended in homogenization buffer and frozen at −80 degrees Celsius. The protein concentration was determined using the Pierce BCA protein assay kit (Pierce reagents A #23223 and B #23224).
Test compounds were serially diluted in 100% DMSO (J. T. Baker #922401). 2 microL of each dilution was added to appropriate wells of a 96-well plate (each concentration in triplicate). Unlabeled Compound A (or Compound B), at a final concentration of 10 microM, was used to determine non-specific binding. [^3H]-Compound A (or [^3H]-Compound B) was diluted in binding buffer (50 mM Tris-HCl, pH 7.5, (Sigma #T7443), 10 mM MgCl2 (Fluka 63020), 1 mM EDTA (BioSolutions #BIO260-15), 0.15% bovine serum albumin (Sigma #A7511), 0.01 mg/mL benzamidine (Sigma #B 6506), 0.01 mg/mL bacitracin (Sigma #B 0125), 0.005 mg/mL leupeptin (Sigma #L 8511), 0.005 mg/mL aprotinin (Sigma #A 1153)) to a concentration of 60 nM, and 100 microL added to all wells of 96-well plate (Nalge Nunc # 267245). […]

[3] = biological target: T1, human GPR119; test: β-Arrestin PathHunter assay (U2OS hGPR119 β-arrestin cells); assay type: cell-based
Method: GPR119 agonist activity was also determined with a cell-based assay utilizing DiscoverX PathHunter β-arrestin cell assay technology and their U2OS hGPR119 β-arrestin cell line (DiscoverX Cat # 93-0356C3). In this assay, agonist activation is determined by measuring agonist-induced interaction of β-arrestin with activated GPR119. A small, 42 amino acid enzyme fragment, called ProLink was appended to the C-terminus of GPR119. Arrestin was fused to the larger enzyme fragment, termed EA (Enzyme Acceptor). Activation of GPR119 stimulates binding of arrestin and forces the complementation of the two enzyme fragments, resulting in formation of a functional β-galactosidase enzyme capable of hydrolyzing substrate and generating a chemiluminescent signal.
Specifically, U2OS hGPR119 β-arrestin cells (DiscoverX 1×10^7/mL) are removed from cryopreservation and diluted in growth medium (Minimum essential medium (MEM; Gibco Cat # 11095-080), 10% heat inactivated fetal bovine serum (HIFBS; Sigma Cat # F4135-100), […] sodium pyruvate (Sigma Cat # S8636), 500 microg/mL G418 (Sigma Cat # G8168) and 250 microg/mL Hygromycin B (Invitrogen Cat # 10687-010). The cell concentration was adjusted to 1.66×10^5 cells/mL and 30 mLs of this suspension was added to a T-175 flask and incubated at 37 degrees Celsius in a humidified environment in 5% carbon dioxide. After 24 hours, the cells were removed from the T-175 flask with enzyme-free cell dissociation buffer (Gibco cat #13151-014), centrifuged at 800×g and then re-suspended in plating medium (Opti-MEM I (Invitrogen/BRL Cat # 31985-070) and 2% charcoal dextran treated fetal bovine serum (CD serum; HyClone Cat # SH30068.03).
The cell concentration was adjusted to 2.5×10^5 cells/mL with plating medium and 20 microliters of this cell suspension (5000 cells) was added to each well of a white Greiner 384-well low volume assay plate (VWR cat #82051-458) and the plates were incubated at 37 degrees Celsius in a humidified environment in 5% carbon dioxide.
After 16 hours (overnight) the assay plates were removed from the incubator and varying concentrations of each compound to be tested (diluted in assay buffer (1×HBSS+CaCl2+MgCl2 (Gibco Cat # 14025-092), 20 mM HEPES pH 7.0 (Gibco Cat # 15630-080) and 0.1% BSA (Sigma Cat # A9576)) were added to the assay plate wells in a volume of 5 microliters (final DMSO concentration was 0.5%). After a 90 minute incubation at 37 degrees Celsius in a humidified environment in 5% carbon dioxide, 12 microliters of Galacton Star β-galactosidase substrate (PathHunter Detection Kit (DiscoveRx Cat # 93-0001); prepared as described in the manufacturers assay protocol) was added to each well of the assay plate. The plates were incubated at room temperature and after 60 minutes, changes in the luminescence were read with an Envision 2104 multilabel plate reader at 0.1 seconds per well. EC50 determinations were made from an agonist-response curves analyzed with a curve fitting program using a 4-parameter logistic dose response equation.

[4] = HTRF cAMP, 30 min, 400 microM IBMX, each line a separate determination
[5] = percent of maximal activity relative to standard GPR119 agonist at 10 micromolar
[6] = marked **: curve was extrapolated to 100%

Row | SMILES | EC50 [1, 4] | Intrinsic Activity (Human cAMP) [1, 5] | Emax [1, 5] | Ki [2] | EC50 ([3]; U2OS hGPR119 β-arrestin cells, 90 min, each line a separate determination, read-out: Human B-arrestin Functional EC50) | Emax ([3]; U2OS, percent of maximal activity relative to standard GPR119 agonist at 10 micromolar, read-out: Intrinsic Activity (Human B-arrestin)) | EC50 ([1]; curve was extrapolated to 100% to calculate an EC50) | Intrinsic Activity (Human cAMP) [1, 6] | Emax [1, 6]
1 | Cc1c(OC2CCN(C(=O)OC3(C)CC3)CC2F)ncnc1N1CCc2cc(C(N)=O)ccc21 (racemic) [Example 20, 1-Methylcyclopropyl 4-{[6-(5-carbamoyl-2,3-dihydro-1H-indol-1-yl)-5-methylpyrimidin-4-yl]oxy}-3-fluoropiperidine-1-carboxylate (racemic)] | 493 nM and 765 nM and 1050 nM | 91.6% and 98% | 81.5% | 1710 nM |  |  |  |  | 
2 | Cc1c(O[C@H]2[C@@H]3COC[C@H]2CN(C(=O)OC(C)(C)C)C3)ncnc1N1CCc2ncccc21 [Example 21, tert-Butyl (9-anti)-9-{[6-(2,3-dihydro-1H-pyrrolo[3,2-b]pyridin-1-yl)-5-methylpyrimidin-4-yl]oxy}-3-oxa-7-azabicyclo[3.3]nonane-7-carboxylate] | 107 nM and 87.8 nM | 45.2% | 49.8% | 26 nM and 25.6 nM |  |  |  |  | 
3 | Cc1c(O[C@H]2CCN(C(=O)OC3(C)CC3)C[C@H]2F)ncnc1N1CCc2ncccc21 (racemic) [Example 19, 1-Methylcyclopropyl (3R,4S)-4-{[6-(2,3-dihydro-1H-pyrrolo[3,2-b]pyridin-1-yl)-5-methylpyrimidin-4-yl]oxy}-3-fluoropiperidine-1-carboxylate (racemic)] | 19.4 nM |  | 57.9% |  | 6.31 nM | 74% |  |  | 
4 | Cc1c(O[C@@H]2CCN(C(=O)OC3(C)CC3)C[C@@H]2F)ncnc1N1CCc2nnccc21 [Example 31, 1-Methylcyclopropyl (3S,4R)-4-{[6-(6,7-dihydro-5H-pyrrolo[3,2-c]pyridazin-5-yl)-5-methylpyrimidin-4-yl]oxy}-3-fluoropiperidine-1-carboxylate] |  |  |  | 618 nM |  |  | 4820 nM and 5890 nM and 6100 nM | 100** % | 100%

From patent US20100285145A1, “GPR 119 MODULATORS” (PFIZER INC, priority 2009, published 2010)
